The values below are quoted from earlier work in US20120201886A1, “Coated Extended Release Pharmaceutical Compositions Containing Paliperidone” (MICRO LABS LIMITED, priority 2010, published 2012).

Each structure is given as a SMILES string.

For the molecule `Cc1nc2n(c(=O)c1CCN1CCC(c3noc4cc(F)ccc34)CC1)CCCC2O` (racemic) [Paliperidone, (RS)-3-[2-[4-(6-fluorobenzo[d]isoxazol-3-yl)-1-piperidyl]ethyl]-7-hydroxy-4-methyl-1,5-diazabicyclo[4.4.0]deca-3,5-dien-2-one], the “solubility in 0.1 N hydrochloric acid” value (0.1 N hydrochloric acid) was “soluble”. Moreover, the solubility in methanol result (methanol) is recorded as “soluble”. In addition, the “solubility in methylene chloride” value (methylene chloride) is “freely soluble”. Under “water”, the solubility in water entry is listed as “practically insoluble”.
